Consider 23 compounds from publication PMC10290372, “Synthesis and tyrosinase inhibitory activities of novel isopropylquinazolinones” (BMC Chemistry, 2023).

In one data set the target is T1, mushroom tyrosinase (Agaricus bisporus, UniProt C7FF04).
T1 construct: purchased Sigma-Aldrich, St Louis, MO, USA
As to the kind of experiment: Screening of mushroom tyrosinase inhibitory activity (oxidation of L-dopa). The data set is classed as biochemical. The conditions noted are these: L-dopa substrate, mean ± S.E; for inhibition at 50 µM: 50 µM compound. On the procedure:
All newly synthesized compounds (9a–q) were examined for their inhibitory potentials against the tyrosinase enzyme and the results were presented in Table 1 and the structure–activity relationships (SARs) were constructed. […].
Tyrosinase inhibitory activity was determined based on the previously described procedure with a slight modification. In brief, the test reaction mixture comprised 10 µL of each derivative, and 10 µL of mushroom tyrosinase (500 units; Sigma-Aldrich, St Louis, MO, USA) in 160 potassium phosphate buffer (pH = 6.8). The reaction mixture was incubated at 37 °C for 20 min and then 20 µL of L-Dopa (0.5 mmol/L) was added to each well, and the absorption was measured at 475 nm. The absorbance of the same mixture without tyrosinase was used as the control. Kojic acid was used as a positive control. The optical density of the inhibition in the control was considered to represent 100%. The data are expressed as mean percentages and the results were repeated in triplicate.

Data set [1] is described as follows: DPPH radical scavenging assay (antioxidant activity). The conditions noted are these: for % Inhibition at 100 µM: 100 µM compound, mean ± S.E of three independent experiments; for antioxidant capacity: result in words; for IC50: NA means not active, read-out: IC50 (µM) ± RSD. The method, then: In vitro antioxidant activities of the synthesized compounds were determined quantitatively using DPPH radical scavenging assay. DPPH is a stable free radical at room temperature and accepts an electron or hydrogen radical from an antioxidant to become a stable diamagnetic molecule. […] Similar to previous studies, halogens especially fluorine, increases antioxidant activity.
The DPPH antioxidant potencies of all derivatives were performed according to previously published articles.

Data set [2] has as its target tyrosinase. Conditions: cited from earlier work; for IC50: tyrosinase.
Data set [3] concerns B16F10 cell line. Set-up: method as in PMID 33640246. The conditions noted are these: cited from earlier work.
Data set [4] relates to B16F10 cell line. The arrangement: method as in PMID 33640246. The conditions noted are these: cited from earlier work. This is another data set of the same source.
For data set [5], the target named is tyrosinase (Agaricus bisporus, UniProt C7FF04). Briefly: Enzyme kinetic studies of tyrosinase inhibition (Lineweaver-Burk and secondary plots). The data set is classed as biochemical, mushroom. The method, then: Fig. 2 Kinetics of tyrosinase inhibition by 9q. a The Lineweaver–Burk plot in the absence and presence of different concentrations of 9q; b The secondary plot of slopes of the lines vs various concentrations of 9q; c The secondary plot of 1/Vmax vs various concentrations of 9q
Sequence of tyrosinase (Agaricus bisporus, UniProt C7FF04) (C7FF04 2-392): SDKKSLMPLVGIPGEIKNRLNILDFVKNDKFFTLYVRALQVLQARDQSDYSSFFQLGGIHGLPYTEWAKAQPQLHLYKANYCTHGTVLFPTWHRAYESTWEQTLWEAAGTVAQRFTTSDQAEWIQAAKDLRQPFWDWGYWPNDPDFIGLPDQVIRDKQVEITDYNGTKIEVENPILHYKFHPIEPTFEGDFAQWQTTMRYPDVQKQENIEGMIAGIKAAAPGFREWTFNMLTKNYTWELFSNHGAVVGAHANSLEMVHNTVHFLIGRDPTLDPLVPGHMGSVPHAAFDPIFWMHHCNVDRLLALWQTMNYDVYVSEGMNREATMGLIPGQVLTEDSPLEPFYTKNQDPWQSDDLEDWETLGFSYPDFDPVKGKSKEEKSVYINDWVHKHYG
A Lineweaver–Burk plot was generated to identify the type of inhibition and the Michaelis–Menten constant (Km) value was determined from the plot between the reciprocal of the substrate concentration (1/[S]) and reciprocal of enzyme rate (1/V) over various inhibitor concentrations.

Entries after “also recorded” stand apart in the source; their conditions may differ. Where two headings read alike, the source gives them in different places.

T1 sequence (C7FF04 1-392 limits assumed): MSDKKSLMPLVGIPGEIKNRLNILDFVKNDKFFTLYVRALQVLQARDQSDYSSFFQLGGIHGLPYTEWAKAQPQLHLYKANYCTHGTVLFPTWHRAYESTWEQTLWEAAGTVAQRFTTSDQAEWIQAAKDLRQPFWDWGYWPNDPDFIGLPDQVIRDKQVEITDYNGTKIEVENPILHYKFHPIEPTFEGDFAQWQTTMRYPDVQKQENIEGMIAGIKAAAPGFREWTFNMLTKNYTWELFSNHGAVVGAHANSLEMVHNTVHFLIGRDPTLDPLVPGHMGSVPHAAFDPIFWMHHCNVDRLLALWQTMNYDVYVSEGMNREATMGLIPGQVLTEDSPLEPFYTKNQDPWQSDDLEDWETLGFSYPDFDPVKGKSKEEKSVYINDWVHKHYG

For the compound `Cc1cccc(NC(=O)CSc2nc3ccccc3c(=O)n2C(C)C)c1C` [Compound 9l, N-(2,3-dimethylphenyl)-2-((3-isopropyl-4-oxo-3,4-dihydroquinazolin-2-yl)thio)acetamide], the melting point fell in the range of 217 to 219 °C. The inhibition at 50 µM at mushroom tyrosinase amounted to 18.2 ± 5.52%. Further, the “% Inhibition at 100 µM” value in data set [1] is 5.08 ± 2.14%.

Take `Cc1cccc(C)c1NC(=O)CSc1nc2ccccc2c(=O)n1C(C)C` [Compound 9n, N-(2,6-dimethylphenyl)-2-((3-isopropyl-4-oxo-3,4-dihydroquinazolin-2-yl)thio)acetamide]: the melting point lay in the range of 215 to 217 °C. Moreover, testing at 50 µM against mushroom tyrosinase gave an inhibition of 16.3 ± 6.57%. Also, the “% Inhibition at 100 µM” value in data set [1] amounted to 44.38 ± 5.03%.

The compound `CC(C)n1c(SCC(=O)Nc2ccccc2)nc2ccccc2c1=O` [Compound 9a, 2-((3-Isopropyl-4-oxo-3,4-dihydroquinazolin-2-yl)thio)-N-phenylacetamide] returned a melting point of 190 to 192 °C. For the same compound, on mushroom tyrosinase, at 50 µM the inhibition was 21.6 ± 3.79%. In addition, in data set [1], the “% Inhibition at 100 µM” value was found to be 2.941 ± 1.76% and the antioxidant capacity result is “no antioxidant capacity”.

For the compound `O=c1cc(CSc2nc3ccccc3c(=O)n2Cc2ccccn2)occ1O` [C], the IC50 on tyrosinase [2] is 0.46 ± 0.9 µM. Further, the melanin content result with B16F10 cell line [3] is reported as “reduced the melanin content”. Besides, the toxicity entry in the data set on B16F10 cell line [4] is listed as “limited toxicity”.

For `CC(C)n1c(SCC(=O)NCc2ccc(F)cc2)nc2ccccc2c1=O` [Compound 9q, N-(4-fluorobenzyl)-2-((3-isopropyl-4-oxo-3,4-dihydroquinazolin-2-yl)thio)acetamide], the inhibition at 50 µM against mushroom tyrosinase was determined as 54.5 ± 3.94%. The compound further returned an IC50 on mushroom tyrosinase (NA means not active) of 34.7 ± 3.68 µM. The type of inhibition result on tyrosinase [5] (Lineweaver-Burk plot, L-Dopa substrate, 9q at 10-50 µM) was “mix-type inhibition; also recorded: mix-type inhibitor; also recorded: mixed mode of inhibition”. Moreover, the “inhibition constant with the enzyme-substrate complex (KIS)” value on tyrosinase [5] (secondary plot of 1/Vmax vs inhibitor concentration) is listed as 87.32 µM. In data set [1], the “% Inhibition at 100 µM” value stood at 60.33 ± 5.53% and the IC50 is 40.7 µM.

On to `CCc1ccc(NC(=O)CSc2nc3ccccc3c(=O)n2C(C)C)cc1` [Compound 9k, N-(4-ethylphenyl)-2-((3-isopropyl-4-oxo-3,4-dihydroquinazolin-2-yl)thio)acetamide], for which the melting point was in the range of 195 to 197 °C. This compound also returned an inhibition at 50 µM against mushroom tyrosinase of 20.4 ± 4.19%. Besides, the “% Inhibition at 100 µM” value in data set [1] turned out to be 10.16 ± 4.27%.

`Cc1ccc(NC(=O)CSc2nc3ccccc3c(=O)n2C(C)C)c(C)c1` [Compound 9m, N-(2,4-dimethylphenyl)-2-((3-isopropyl-4-oxo-3,4-dihydroquinazolin-2-yl)thio)acetamide] gave a melting point of 222 to 225 °C. On mushroom tyrosinase, at 50 µM the inhibition was 27.3 ± 3.43%. The “% Inhibition at 100 µM” value in data set [1] is 21.12 ± 2.99%.

`O=c1[nH]c(-c2ccc(F)cc2)nc2ccccc12` [Compound A, 2–4-fluorophenyl-quinazolin-4(3H)-one]: in the data set with tyrosinase [2] (kinetic studies), the type of inhibition result is “reversible and mixed-type inhibitor”. The IC50 on tyrosinase [2] (diphenolase activity) was 120 ± 2 µM.

Turning to `CC(C)n1c(SCC(=O)Nc2ccccc2Cl)nc2ccccc2c1=O` [Compound 9b, N-(2-chlorophenyl)-2-((3-isopropyl-4-oxo-3,4-dihydroquinazolin-2-yl)thio)acetamide], the melting point lay in the range of 207 to 209 °C. The compound also showed an inhibition at 50 µM against mushroom tyrosinase of 38 ± 4.68%. Besides, the “% Inhibition at 100 µM” value in data set [1] is 26.47 ± 2.48%.

For the compound `CC(C)n1c(SCC(=O)Nc2cccc(Cl)c2)nc2ccccc2c1=O` [Compound 9c, N-(3-chlorophenyl)-2-((3-isopropyl-4-oxo-3,4-dihydroquinazolin-2-yl)thio)acetamide], the melting point lay within 203 to 205 °C. This compound displayed an inhibition at 50 µM against mushroom tyrosinase of 27.8 ± 1.19%. Further, the “% Inhibition at 100 µM” value in data set [1] is on record as 18.71 ± 5.39%.

Turning to `CC(C)N1C(=O)c2ccccc2NC1SCc1ccccc1` (stereo not drawn) [F], on tyrosinase [2], the concentration for half-maximal inhibition (IC50) is 71 ± 3.37 µM.

Regarding `CC(C)n1c(=S)[nH]c2ccccc2c1=O` [E], the IC50 at tyrosinase [2] is 15.5 ± 1.19 µM.

As for `CC(C)n1c(SCC(=O)Nc2ccc([N+](=O)[O-])cc2)nc2ccccc2c1=O` [Compound 9f, 2-((3-isopropyl-4-oxo-3,4-dihydroquinazolin-2-yl)thio)-N-(4-nitrophenyl)acetamide], the melting point lay within 216 to 218 °C. The compound further showed an inhibition at 50 µM at mushroom tyrosinase of 32.7 ± 5.67%. Besides, the “% Inhibition at 100 µM” value in data set [1] is 4.87 ± 1.65%.

Take `CC(C)=CCC/C(C)=C/c1nc2ccccc2c(=O)[nH]1` [D]: in the data set with tyrosinase [2], the type of inhibition entry is “mix type inhibition pattern” and the concentration for half-maximal inhibition (IC50) is 103 ± 2 µM.

`Cc1ccc(NC(=O)CSc2nc3ccccc3c(=O)n2C(C)C)cc1` [Compound 9h, 2-((3-isopropyl-4-oxo-3,4-dihydroquinazolin-2-yl)thio)-N-(p-tolyl)acetamide] gave a melting point of 199 to 201 °C. At mushroom tyrosinase, this compound registered an inhibition at 50 µM of 26.7 ± 6.42%. The “% Inhibition at 100 µM” value in data set [1] is on record as 29.41 ± 1.76%.

Compound `CC(C)n1c(SCC(=O)Nc2ccc3ccccc3c2)nc2ccccc2c1=O` [Compound 9o, 2-((3-isopropyl-4-oxo-3,4-dihydroquinazolin-2-yl)thio)-N-(naphthalen-2-yl)acetamide] showed a melting point of 217 to 219 °C. Also, testing at 50 µM against mushroom tyrosinase gave an inhibition of 35.2 ± 3.88%. Further, in data set [1], the “% Inhibition at 100 µM” value amounted to 68.44 ± 4.84% and the IC50 is 38.8 µM.

`CC(C)n1c(SCC(=O)NCc2ccccc2)nc2ccccc2c1=O` [Compound 9p, N-benzyl-2-((3-isopropyl-4-oxo-3,4-dihydroquinazolin-2-yl)thio)acetamide] yielded a melting point of 194 to 196 °C. Further, at mushroom tyrosinase, the inhibition at 50 µM worked out at 29.1 ± 5.24%. Moreover, in data set [1], the “% Inhibition at 100 µM” value is on record as 4.47 ± 2.35% and the antioxidant capacity result is “no antioxidant capacity”.

`COc1ccc(NC(=O)CSc2nc3ccccc3c(=O)n2C(C)C)cc1` [Compound 9i, 2-((3-isopropyl-4-oxo-3,4-dihydroquinazolin-2-yl)thio)-N-(4-methoxyphenyl)acetamide] showed a melting point of 205 to 207 °C. The compound further registered an inhibition at 50 µM against mushroom tyrosinase of 25.4 ± 3.13%. The “% Inhibition at 100 µM” value in data set [1] came out at 20.05 ± 3.47%.

`CC(C)n1c(SCC(=O)Nc2ccc(O)cc2)nc2ccccc2c1=O` [Compound 9j, N-(4-hydroxyphenyl)-2-((3-isopropyl-4-oxo-3,4-dihydroquinazolin-2-yl)thio)acetamide] had a melting point of 193 to 195 °C. In addition, at 50 µM the inhibition against mushroom tyrosinase was 35.5 ± 4.91%. The “% Inhibition at 100 µM” value in data set [1] was 40.83 ± 4.53%.

For `O=c1c(O)c(-c2ccc(O)c(O)c2)oc2cc(O)cc(O)c12` [Quercetin, reference compound], the IC50 in data set [1] turned out to be 18.6 µM.

In turn, `CC(C)n1c(SCC(=O)Nc2ccc(Cl)cc2)nc2ccccc2c1=O` [Compound 9d, N-(4-chlorophenyl)-2-((3-isopropyl-4-oxo-3,4-dihydroquinazolin-2-yl)thio)acetamide] showed a melting point of 211 to 213 °C. The compound also came in with an inhibition at 50 µM against mushroom tyrosinase of 26.9 ± 4.67%. Further, the “% Inhibition at 100 µM” value in data set [1] came to 42.78 ± 4.86%.

With `Cc1ccccc1NC(=O)CSc1nc2ccccc2c(=O)n1C(C)C` [Compound 9g, 2-((3-isopropyl-4-oxo-3,4-dihydroquinazolin-2-yl)thio)-N-(o-tolyl)acetamide], the melting point fell in the range of 196 to 198 °C. Moreover, the inhibition at 50 µM against mushroom tyrosinase stood at 34.6 ± 4.67%.

`CC(C)n1c(SCC(=O)Nc2ccc(Br)cc2)nc2ccccc2c1=O` [Compound 9e, N-(4-bromophenyl)-2-((3-isopropyl-4-oxo-3,4-dihydroquinazolin-2-yl)thio)acetamide] had a melting point of 203 to 205 °C. In addition, at 50 µM the inhibition on mushroom tyrosinase was 24.8 ± 3.12%. Further, in data set [1], the “% Inhibition at 100 µM” value is reported as 41.44 ± 3.85%.
